Measurements published in ChEMBL document CHEMBL5465560, “Selectivity Literature for EUbOPEN Chemogenomic Library” (2024).
Values belong to the molecule of their own block, whether it stands above or below them.

Experiments:
D(1A) dopamine receptor = D(1A) dopamine receptor (Homo sapiens, UniProt P21728); experiment: Selectivity interaction (Panel of kinases, GPCRs, ion channels and transporters (enzymatic assay)) EUB0000266bCl DRD1
[1] = molecular target: T1, Histone-lysine N-methyltransferase EHMT2 (Homo sapiens) (UniProt Q96KQ7); experiment: Selectivity interaction (Transferase panel (protein, RNA, and DNA methyltransferases. and EP300 (acetyltransferase))) EUB0000270b EHMT2
T1 sequence (whole entry): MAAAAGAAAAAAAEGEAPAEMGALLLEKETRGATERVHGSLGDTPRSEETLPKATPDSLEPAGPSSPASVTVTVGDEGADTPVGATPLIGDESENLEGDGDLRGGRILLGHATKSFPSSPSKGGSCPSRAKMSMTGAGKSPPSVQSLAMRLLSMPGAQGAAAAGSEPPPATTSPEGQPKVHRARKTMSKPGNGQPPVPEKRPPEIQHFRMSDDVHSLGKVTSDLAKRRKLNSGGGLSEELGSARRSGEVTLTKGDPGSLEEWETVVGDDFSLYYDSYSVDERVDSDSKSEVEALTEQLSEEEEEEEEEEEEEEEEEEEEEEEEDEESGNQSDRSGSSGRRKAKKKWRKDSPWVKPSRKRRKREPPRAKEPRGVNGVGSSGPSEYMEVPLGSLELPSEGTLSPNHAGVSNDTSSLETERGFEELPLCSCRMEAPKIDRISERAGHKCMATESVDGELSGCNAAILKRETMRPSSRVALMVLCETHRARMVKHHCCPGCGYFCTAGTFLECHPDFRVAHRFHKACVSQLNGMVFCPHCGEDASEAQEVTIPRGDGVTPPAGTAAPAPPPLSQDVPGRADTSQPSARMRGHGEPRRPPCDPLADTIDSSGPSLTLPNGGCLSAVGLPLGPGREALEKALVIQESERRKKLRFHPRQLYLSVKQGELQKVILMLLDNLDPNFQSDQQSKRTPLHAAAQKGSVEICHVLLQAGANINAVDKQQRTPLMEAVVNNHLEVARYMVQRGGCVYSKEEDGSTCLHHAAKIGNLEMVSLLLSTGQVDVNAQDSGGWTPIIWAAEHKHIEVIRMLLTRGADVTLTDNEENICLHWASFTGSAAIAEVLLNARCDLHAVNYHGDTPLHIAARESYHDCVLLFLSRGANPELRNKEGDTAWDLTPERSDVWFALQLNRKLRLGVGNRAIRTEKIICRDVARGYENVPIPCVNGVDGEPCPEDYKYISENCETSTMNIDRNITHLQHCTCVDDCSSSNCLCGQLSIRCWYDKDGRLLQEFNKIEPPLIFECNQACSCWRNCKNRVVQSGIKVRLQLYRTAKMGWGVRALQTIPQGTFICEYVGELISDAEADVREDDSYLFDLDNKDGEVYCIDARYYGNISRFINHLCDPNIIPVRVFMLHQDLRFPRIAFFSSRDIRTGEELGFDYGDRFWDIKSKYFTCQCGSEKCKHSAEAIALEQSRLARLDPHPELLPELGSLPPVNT

[2] = Selectivity interaction (Eurofins CEREP Diversity Profile (receptors and ion channels)) EUB0000279b CRH; conditions: at 10 µM
[3] = molecular target: Mitogen-activated protein kinase 1 (Homo sapiens, UniProt P28482); experiment: Selectivity interaction (KinomeScan (DiscoverX)) EUB0000229b MAPK1; conditions: at 10 µM
[4] = molecular target: T2, Receptor-interacting serine/threonine-protein kinase 4 (Homo sapiens) (UniProt P57078); experiment: Selectivity interaction (KinomeScan (DiscoverX)) EUB0000607a RIPK4; conditions: at 10 µM
T2 sequence (whole entry): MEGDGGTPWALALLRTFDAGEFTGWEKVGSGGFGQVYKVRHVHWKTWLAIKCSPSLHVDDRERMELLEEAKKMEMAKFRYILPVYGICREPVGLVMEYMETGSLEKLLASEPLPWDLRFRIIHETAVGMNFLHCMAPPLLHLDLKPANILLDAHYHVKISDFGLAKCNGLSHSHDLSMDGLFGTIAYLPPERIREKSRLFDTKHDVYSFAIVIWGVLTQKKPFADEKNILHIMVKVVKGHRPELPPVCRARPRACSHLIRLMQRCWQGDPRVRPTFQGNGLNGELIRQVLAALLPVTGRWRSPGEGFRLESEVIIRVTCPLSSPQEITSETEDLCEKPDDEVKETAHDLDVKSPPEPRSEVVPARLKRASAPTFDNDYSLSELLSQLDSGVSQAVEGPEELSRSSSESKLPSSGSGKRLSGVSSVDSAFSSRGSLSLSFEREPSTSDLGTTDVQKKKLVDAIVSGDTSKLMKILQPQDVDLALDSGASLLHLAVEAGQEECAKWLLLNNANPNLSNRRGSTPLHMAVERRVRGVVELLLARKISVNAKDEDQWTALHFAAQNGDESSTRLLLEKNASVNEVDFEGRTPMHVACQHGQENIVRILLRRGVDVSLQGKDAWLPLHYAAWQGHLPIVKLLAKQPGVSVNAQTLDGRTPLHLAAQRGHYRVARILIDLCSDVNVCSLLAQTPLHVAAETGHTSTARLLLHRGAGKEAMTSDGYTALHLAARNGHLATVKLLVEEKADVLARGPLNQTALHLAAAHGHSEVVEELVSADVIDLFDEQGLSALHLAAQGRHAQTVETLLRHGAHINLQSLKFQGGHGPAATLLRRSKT

Chain of Mitogen-activated protein kinase 1 (P28482 whole entry): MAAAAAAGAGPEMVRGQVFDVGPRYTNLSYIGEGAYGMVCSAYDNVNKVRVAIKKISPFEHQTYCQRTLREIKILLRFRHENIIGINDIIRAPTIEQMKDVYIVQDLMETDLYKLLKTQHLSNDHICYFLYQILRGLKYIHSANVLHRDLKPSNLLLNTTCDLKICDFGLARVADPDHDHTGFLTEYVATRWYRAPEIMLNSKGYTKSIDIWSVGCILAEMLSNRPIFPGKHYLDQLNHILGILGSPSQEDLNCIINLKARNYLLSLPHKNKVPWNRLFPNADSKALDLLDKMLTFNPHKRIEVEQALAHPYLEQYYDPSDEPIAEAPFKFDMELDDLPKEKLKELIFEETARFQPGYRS
Chain of D(1A) dopamine receptor (P21728 whole entry): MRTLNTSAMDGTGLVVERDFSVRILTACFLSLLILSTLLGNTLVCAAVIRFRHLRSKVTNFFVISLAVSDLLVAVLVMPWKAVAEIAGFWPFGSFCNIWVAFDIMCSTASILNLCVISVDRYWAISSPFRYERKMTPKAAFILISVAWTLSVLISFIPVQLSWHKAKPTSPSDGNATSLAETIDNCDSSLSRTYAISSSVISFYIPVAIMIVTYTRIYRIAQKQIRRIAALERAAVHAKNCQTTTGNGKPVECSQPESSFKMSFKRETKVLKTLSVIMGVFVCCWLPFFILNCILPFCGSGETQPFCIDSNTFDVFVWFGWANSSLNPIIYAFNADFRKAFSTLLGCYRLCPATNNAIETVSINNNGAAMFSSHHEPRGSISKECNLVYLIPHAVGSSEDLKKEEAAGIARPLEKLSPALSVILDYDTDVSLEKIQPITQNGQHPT

Structure (SMILES): COc1cc(N(C)c2ccnc3ccc(C(F)(F)F)cc23)cc(OC)c1OC
% binding [3]: 97%

Structure (SMILES): CNC(=O)Nc1ccc(-c2nc(N3CC4CCC(C3)O4)c3cnn(C4CCC5(CC4)OCCO5)c3n2)cc1
% of control [4]: 98%

Further lines, results first:

pXC50 (D(1A) dopamine receptor): 4.6 M
Structure (SMILES): CCn1c(-c2nc3cc(C(=O)N4CCCC(N)C4)ccc3n2C)cc2ccccc21 (stereo unspecified)

% activity ([1]; at 1 µM): > 90%
% activity ([1]; at 10 µM): > 80%
Structure (SMILES): Cc1cc(CN)cc(C)c1-c1ncn(C)c1-c1cncn1C

% of control [2]: 118%
Structure (SMILES): CC(=O)c1cc(-c2ccccc2OCC2CC2)c2ncccn12
